Experimental data as given in ChEMBL document CHEMBL3885861, “Open TG-GATES”.

Species: Rattus norvegicus
Test: Open TG-GATES - Regimen: Single
Assay type: toxicity, organism-based, Sprague-Dawley
Design: regimen Single, gender Male, age 6 weeks
Details: in vivo, po, 100 mg/kg, route gavage, dose level Low; for APTT / Bas / Eos / Fbg / Hb / Ht / Lym / MCH / MCHC / MCV / Mono / Neu / PT / Plat / RBC / Ret / WBC: tissue Blood; for KIDNEY_L / KIDNEY_R / KIDNEY_TOTAL: tissue Kidney; for LIVER: tissue Liver; for A/G / ALP / ALT / AST / BUN / CRE / Ca / Cl / DBIL / GLC / IP / K / LDH / Na / PL / RALB / TBIL / TC / TG / TP / gamma-GTP: tissue Plasma

SMILES: O=C(O)COc1nn(Cc2ccccc2)c2ccccc12 [BENDAZAC]
- TERMINAL_BW (3 h): 207.2 g
- APTT (3 h): 16.8 s
- Bas (3 h): 0%
- Eos (3 h): 1%
- Fbg (3 h): 209.6 mg/dL
- Hb (3 h): 14 g/dL
- Ht (3 h): 42.1%
- Lym (3 h): 80.8%
- MCH (3 h): 21.8 pg
- MCHC (3 h): 33.4%
- MCV (3 h): 65.2 fL
- Mono (3 h): 7.2%
- Neu (3 h): 11.6%
- PT (3 h): 11.3 s
- Plat (3 h): 131.9 x10_4/uL
- RBC (3 h): 644.8 x10_4/ul
- Ret (3 h): 9.1%
- WBC (3 h): 111.8 x10_2/uL
- KIDNEY_L (3 h): 1 g
- KIDNEY_R (3 h): 1 g
- KIDNEY_TOTAL (3 h): 1.9 g
- LIVER (3 h): 9.9 g
- A/G (3 h): 2.1
- ALP (3 h): 1620.8 IU/L
- ALT (3 h): 35.8 IU/L
- AST (3 h): 68 IU/L
- BUN (3 h): 12.8 mg/dL
- CRE (3 h): 0.6 mg/dL
- Ca (3 h): 10.9 mg/dL
- Cl (3 h): 102 meq/L
- DBIL (3 h): 0.008 mg/dL
- GLC (3 h): 196.8 mg/dL
- IP (3 h): 9.2 mg/dL
- K (3 h): 4.6 meq/L
- LDH (3 h): 93.2 IU/L
- Na (3 h): 140.2 meq/L
- PL (3 h): 130.2 mg/dL
- RALB (3 h): 3.7 g/dL
- TBIL (3 h): 1.4 mg/dL
- TC (3 h): 73.6 mg/dL
- TG (3 h): 56.2 mg/dL
- TP (3 h): 5.4 g/dL
- gamma-GTP (3 h): 1.4 IU/L
- TERMINAL_BW (6 h): 207.8 g
- APTT (6 h): 16.4 s
- Bas (6 h): 0%
- Eos (6 h): 1%
- Fbg (6 h): 202.2 mg/dL
- Hb (6 h): 13.9 g/dL
- Ht (6 h): 41.6%
- Lym (6 h): 79.4%
- MCH (6 h): 21.6 pg
- MCHC (6 h): 33.4%
- MCV (6 h): 64.9 fL
- Mono (6 h): 8.8%
- Neu (6 h): 11.2%
- PT (6 h): 12 s
- Plat (6 h): 113.2 x10_4/uL
- RBC (6 h): 641.8 x10_4/ul
- Ret (6 h): 10.5%
- WBC (6 h): 96.2 x10_2/uL
- KIDNEY_L (6 h): 1 g
- KIDNEY_R (6 h): 1 g
- KIDNEY_TOTAL (6 h): 2 g
- LIVER (6 h): 9.2 g
- A/G (6 h): 2.3
- ALP (6 h): 1175.6 IU/L
- ALT (6 h): 35.2 IU/L
- AST (6 h): 66 IU/L
- BUN (6 h): 13 mg/dL
- CRE (6 h): 0.6 mg/dL
- Ca (6 h): 10.8 mg/dL
- Cl (6 h): 103.4 meq/L
- DBIL (6 h): 0.09 mg/dL
- GLC (6 h): 183.8 mg/dL
- IP (6 h): 10.7 mg/dL
- K (6 h): 4.8 meq/L
- LDH (6 h): 90.6 IU/L
- Na (6 h): 140.2 meq/L
- PL (6 h): 126 mg/dL
- RALB (6 h): 3.7 g/dL
- TBIL (6 h): 1.2 mg/dL
- TC (6 h): 70.8 mg/dL
- TG (6 h): 41.4 mg/dL
- TP (6 h): 5.3 g/dL
- gamma-GTP (6 h): 1.8 IU/L
- TERMINAL_BW (9 h): 207.3 g
- APTT (9 h): 17 s
- Bas (9 h): 0%
- Eos (9 h): 1%
- Fbg (9 h): 218.2 mg/dL
- Hb (9 h): 13.5 g/dL
- Ht (9 h): 40.3%
- Lym (9 h): 70%
- MCH (9 h): 22 pg
- MCHC (9 h): 33.6%
- MCV (9 h): 65.4 fL
- Mono (9 h): 8.8%
- Neu (9 h): 20%
- PT (9 h): 11.7 s
- Plat (9 h): 125.1 x10_4/uL
- RBC (9 h): 617 x10_4/ul
- Ret (9 h): 8.5%
- WBC (9 h): 105.7 x10_2/uL
- KIDNEY_L (9 h): 0.9 g
- KIDNEY_R (9 h): 1 g
- KIDNEY_TOTAL (9 h): 1.9 g
- LIVER (9 h): 8.6 g
- A/G (9 h): 2.1
- ALP (9 h): 1541.8 IU/L
- ALT (9 h): 29 IU/L
- AST (9 h): 58.2 IU/L
- BUN (9 h): 11.6 mg/dL
- CRE (9 h): 0.6 mg/dL
- Ca (9 h): 10.6 mg/dL
- Cl (9 h): 104.4 meq/L
- DBIL (9 h): 0.034 mg/dL
- GLC (9 h): 189 mg/dL
- IP (9 h): 9.8 mg/dL
- K (9 h): 4.4 meq/L
- LDH (9 h): 90.2 IU/L
- Na (9 h): 142.8 meq/L
- PL (9 h): 127.2 mg/dL
- RALB (9 h): 3.8 g/dL
- TBIL (9 h): 1 mg/dL
- TC (9 h): 75.4 mg/dL
- TG (9 h): 34.2 mg/dL
- TP (9 h): 5.6 g/dL
- gamma-GTP (9 h): 1.2 IU/L
- TERMINAL_BW (24 h): 225.9 g
- APTT (24 h): 17.2 s
- Bas (24 h): 0%
- Eos (24 h): 1%
- Fbg (24 h): 209.8 mg/dL
- Hb (24 h): 13.4 g/dL
- Ht (24 h): 40.2%
- Lym (24 h): 73%
- MCH (24 h): 21.6 pg
- MCHC (24 h): 33.3%
- MCV (24 h): 64.9 fL
- Mono (24 h): 11.6%
- Neu (24 h): 14.4%
- PT (24 h): 11.8 s
- Plat (24 h): 115.2 x10_4/uL
- RBC (24 h): 619 x10_4/ul
- Ret (24 h): 7.9%
- WBC (24 h): 109.4 x10_2/uL
- KIDNEY_L (24 h): 1.1 g
- KIDNEY_R (24 h): 1.1 g
- KIDNEY_TOTAL (24 h): 2.2 g
- LIVER (24 h): 11.5 g
- A/G (24 h): 2.1
- ALP (24 h): 1133.2 IU/L
- ALT (24 h): 39.6 IU/L
- AST (24 h): 62.8 IU/L
- BUN (24 h): 16.8 mg/dL
- CRE (24 h): 0.6 mg/dL
- Ca (24 h): 11.3 mg/dL
- Cl (24 h): 104.2 meq/L
- DBIL (24 h): 0.024 mg/dL
- GLC (24 h): 204.8 mg/dL
- IP (24 h): 8 mg/dL
- K (24 h): 4.6 meq/L
- LDH (24 h): 127.8 IU/L
- Na (24 h): 141.2 meq/L
- PL (24 h): 147 mg/dL
- RALB (24 h): 3.7 g/dL
- TBIL (24 h): 0.4 mg/dL
- TC (24 h): 74.2 mg/dL
- TG (24 h): 86.4 mg/dL
- TP (24 h): 5.5 g/dL
- gamma-GTP (24 h): 1.2 IU/L
